The text below walks through data of US12427210B2, “Compounds comprising a fibroblast activation protein ligand and use thereof” (priority 2019, dated 2025).

Assay [1] deals with T1, Ubiquitin carboxyl-terminal hydrolase 2 (Homo sapiens, UniProt O75604).
T1 sequence (O75604 1-605): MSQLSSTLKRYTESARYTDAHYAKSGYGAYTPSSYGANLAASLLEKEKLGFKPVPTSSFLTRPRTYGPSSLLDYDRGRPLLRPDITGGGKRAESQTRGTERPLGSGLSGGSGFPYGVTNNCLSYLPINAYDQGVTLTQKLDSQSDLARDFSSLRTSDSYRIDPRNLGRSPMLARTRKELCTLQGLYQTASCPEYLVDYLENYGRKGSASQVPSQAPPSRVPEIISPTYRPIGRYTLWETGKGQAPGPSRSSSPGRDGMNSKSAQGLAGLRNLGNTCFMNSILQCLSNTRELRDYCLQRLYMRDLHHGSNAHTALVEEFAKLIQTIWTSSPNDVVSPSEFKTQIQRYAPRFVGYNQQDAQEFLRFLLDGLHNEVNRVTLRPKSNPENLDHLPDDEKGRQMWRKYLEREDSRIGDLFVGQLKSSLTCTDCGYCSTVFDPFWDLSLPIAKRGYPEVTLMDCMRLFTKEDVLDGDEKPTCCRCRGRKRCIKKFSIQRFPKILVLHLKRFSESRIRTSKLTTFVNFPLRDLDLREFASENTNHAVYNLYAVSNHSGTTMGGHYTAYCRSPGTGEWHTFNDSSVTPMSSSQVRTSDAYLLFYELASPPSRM
The note with it: 1 μM.

Assay [2] concerns the target Ubiquitin carboxyl-terminal hydrolase 10 (Homo sapiens, UniProt Q14694). The following applies: 1 μM.
Assay [3] has as its target T2, Ubiquitin carboxyl-terminal hydrolase 8 (Homo sapiens, UniProt P40818).
T2 sequence (P40818 1-1118): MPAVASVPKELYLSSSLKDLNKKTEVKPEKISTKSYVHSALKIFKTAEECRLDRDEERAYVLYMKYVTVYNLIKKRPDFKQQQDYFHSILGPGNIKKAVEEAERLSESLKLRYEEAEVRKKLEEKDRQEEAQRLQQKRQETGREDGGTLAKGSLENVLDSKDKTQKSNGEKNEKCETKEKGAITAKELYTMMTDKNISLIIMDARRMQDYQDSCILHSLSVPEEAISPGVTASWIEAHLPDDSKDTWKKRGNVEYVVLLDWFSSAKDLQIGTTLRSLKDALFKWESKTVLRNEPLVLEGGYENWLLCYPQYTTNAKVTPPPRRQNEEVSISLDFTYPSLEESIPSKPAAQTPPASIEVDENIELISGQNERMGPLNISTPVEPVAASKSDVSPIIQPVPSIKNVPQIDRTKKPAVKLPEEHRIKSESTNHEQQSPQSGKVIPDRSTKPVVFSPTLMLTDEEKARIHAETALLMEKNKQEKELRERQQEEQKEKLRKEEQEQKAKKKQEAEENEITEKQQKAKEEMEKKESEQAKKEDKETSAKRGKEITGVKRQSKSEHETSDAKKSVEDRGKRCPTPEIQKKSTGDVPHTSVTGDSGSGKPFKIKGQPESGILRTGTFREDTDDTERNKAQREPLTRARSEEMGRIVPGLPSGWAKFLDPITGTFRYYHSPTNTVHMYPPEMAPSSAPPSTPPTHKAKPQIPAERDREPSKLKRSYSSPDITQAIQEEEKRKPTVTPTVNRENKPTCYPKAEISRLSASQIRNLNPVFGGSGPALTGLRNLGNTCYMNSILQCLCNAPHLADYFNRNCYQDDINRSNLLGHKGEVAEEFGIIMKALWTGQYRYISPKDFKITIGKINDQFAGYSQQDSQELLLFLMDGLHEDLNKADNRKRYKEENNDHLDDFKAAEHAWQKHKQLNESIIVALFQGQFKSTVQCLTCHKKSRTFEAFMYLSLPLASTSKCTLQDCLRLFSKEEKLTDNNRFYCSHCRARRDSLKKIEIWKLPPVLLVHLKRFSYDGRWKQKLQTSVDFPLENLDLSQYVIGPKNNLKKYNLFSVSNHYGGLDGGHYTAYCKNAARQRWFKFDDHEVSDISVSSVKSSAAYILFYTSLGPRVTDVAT
The following applies: 1 μM.

Assay [4] concerns the target Ubiquitin carboxyl-terminal hydrolase 7 (Homo sapiens, UniProt Q93009). The following applies: 1 μM.
The target of another assay is T3, Deubiquitinase OTUD6B (Homo sapiens, UniProt Q8N6M0).
T3 sequence (Q8N6M0 1-293): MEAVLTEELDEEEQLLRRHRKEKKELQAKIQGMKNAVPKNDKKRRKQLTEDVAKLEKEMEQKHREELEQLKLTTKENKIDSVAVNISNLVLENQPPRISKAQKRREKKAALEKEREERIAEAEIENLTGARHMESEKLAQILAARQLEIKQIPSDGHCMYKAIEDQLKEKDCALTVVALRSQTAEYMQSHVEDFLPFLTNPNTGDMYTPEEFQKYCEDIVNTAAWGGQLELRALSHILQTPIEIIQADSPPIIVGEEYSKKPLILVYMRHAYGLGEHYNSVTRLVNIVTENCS
The following applies: 1 μM.

The target of assay [5] is T4, Ubiquitin carboxyl-terminal hydrolase 5 (Homo sapiens, UniProt P45974).
T4 sequence (P45974 1-858): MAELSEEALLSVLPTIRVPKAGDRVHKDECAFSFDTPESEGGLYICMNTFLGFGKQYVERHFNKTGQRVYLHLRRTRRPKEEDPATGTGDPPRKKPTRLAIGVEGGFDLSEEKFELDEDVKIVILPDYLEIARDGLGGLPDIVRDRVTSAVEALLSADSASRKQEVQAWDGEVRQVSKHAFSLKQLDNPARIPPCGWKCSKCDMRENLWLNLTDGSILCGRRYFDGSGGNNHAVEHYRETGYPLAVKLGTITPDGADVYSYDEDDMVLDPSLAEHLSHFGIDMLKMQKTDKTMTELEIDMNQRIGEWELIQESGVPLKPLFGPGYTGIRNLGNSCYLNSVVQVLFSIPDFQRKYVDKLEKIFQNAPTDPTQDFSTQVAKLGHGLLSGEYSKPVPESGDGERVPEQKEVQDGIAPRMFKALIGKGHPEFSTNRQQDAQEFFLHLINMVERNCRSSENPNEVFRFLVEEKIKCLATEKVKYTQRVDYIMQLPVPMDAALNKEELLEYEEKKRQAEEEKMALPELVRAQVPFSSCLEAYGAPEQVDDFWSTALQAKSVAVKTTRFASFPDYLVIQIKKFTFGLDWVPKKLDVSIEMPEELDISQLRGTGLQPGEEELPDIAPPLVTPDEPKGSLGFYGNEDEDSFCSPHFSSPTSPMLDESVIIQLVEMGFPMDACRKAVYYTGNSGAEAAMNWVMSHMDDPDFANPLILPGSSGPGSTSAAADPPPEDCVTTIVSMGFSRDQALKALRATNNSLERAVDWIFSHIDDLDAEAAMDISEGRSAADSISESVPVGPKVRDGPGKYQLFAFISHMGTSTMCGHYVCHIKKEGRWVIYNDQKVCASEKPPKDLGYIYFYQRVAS
The following applies: 1 μM.

The target of the next assay is Ataxin3 (Homo sapiens, UniProt P54252). The note with it: 10 μM.
Ataxin3, sequence (P54252 whole entry, species assumed): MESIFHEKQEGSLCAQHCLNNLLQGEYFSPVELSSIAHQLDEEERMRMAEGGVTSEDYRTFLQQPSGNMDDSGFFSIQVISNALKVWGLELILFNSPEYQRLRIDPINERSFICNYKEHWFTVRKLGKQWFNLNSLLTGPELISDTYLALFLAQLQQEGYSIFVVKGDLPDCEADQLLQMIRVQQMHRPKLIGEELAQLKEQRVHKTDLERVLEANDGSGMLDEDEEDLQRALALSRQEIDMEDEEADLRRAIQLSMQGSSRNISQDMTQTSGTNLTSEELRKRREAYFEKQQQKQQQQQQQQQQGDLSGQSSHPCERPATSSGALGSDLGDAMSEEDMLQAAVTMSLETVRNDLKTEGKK
In assay [6] the target is Ubiquitin carboxyl-terminal hydrolase 14 (Homo sapiens, UniProt P54578). The note with it: 100 nM.
Ubiquitin carboxyl-terminal hydrolase 14, sequence (P54578 whole entry): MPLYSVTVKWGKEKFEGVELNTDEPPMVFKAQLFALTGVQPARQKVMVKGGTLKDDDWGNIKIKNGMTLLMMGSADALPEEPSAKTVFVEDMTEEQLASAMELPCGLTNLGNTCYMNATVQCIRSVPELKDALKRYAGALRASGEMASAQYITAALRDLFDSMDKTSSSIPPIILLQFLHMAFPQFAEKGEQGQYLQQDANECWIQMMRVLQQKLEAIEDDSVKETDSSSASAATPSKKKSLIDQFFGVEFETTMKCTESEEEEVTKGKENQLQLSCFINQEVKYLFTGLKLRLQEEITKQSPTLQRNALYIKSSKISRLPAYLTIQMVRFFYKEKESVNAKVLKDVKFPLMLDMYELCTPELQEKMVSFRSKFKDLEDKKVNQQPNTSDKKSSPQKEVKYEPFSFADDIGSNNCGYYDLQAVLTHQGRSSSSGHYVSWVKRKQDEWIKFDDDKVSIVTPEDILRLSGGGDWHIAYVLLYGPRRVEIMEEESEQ
Assay [7] concerns the target T5, Ubiquitin carboxy-terminal hydrolase L1 (Homo sapiens, UniProt P09936).
T5 sequence (P09936 1-223): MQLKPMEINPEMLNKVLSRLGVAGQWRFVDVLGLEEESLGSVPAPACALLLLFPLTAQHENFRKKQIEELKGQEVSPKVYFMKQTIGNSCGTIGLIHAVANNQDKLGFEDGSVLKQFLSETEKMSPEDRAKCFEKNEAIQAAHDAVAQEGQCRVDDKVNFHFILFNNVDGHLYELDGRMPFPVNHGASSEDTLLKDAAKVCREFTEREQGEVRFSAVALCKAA
The note with it: 100 nM.

The target of assay [8] is T6, Ubiquitin carboxy-terminal hydrolase L3 (Homo sapiens, UniProt P15374).
T6 sequence (P15374 1-230): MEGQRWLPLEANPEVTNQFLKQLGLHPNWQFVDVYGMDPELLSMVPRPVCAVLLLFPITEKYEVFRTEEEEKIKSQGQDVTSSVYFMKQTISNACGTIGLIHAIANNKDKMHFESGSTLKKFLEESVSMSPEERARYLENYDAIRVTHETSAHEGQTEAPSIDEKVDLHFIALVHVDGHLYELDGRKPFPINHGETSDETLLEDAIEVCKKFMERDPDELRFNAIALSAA
The note with it: 10 nM.

For another assay, the target named is FAP (Homo sapiens, UniProt Q12884). The note with it: 100 nM.
FAP, sequence (Q12884 whole entry): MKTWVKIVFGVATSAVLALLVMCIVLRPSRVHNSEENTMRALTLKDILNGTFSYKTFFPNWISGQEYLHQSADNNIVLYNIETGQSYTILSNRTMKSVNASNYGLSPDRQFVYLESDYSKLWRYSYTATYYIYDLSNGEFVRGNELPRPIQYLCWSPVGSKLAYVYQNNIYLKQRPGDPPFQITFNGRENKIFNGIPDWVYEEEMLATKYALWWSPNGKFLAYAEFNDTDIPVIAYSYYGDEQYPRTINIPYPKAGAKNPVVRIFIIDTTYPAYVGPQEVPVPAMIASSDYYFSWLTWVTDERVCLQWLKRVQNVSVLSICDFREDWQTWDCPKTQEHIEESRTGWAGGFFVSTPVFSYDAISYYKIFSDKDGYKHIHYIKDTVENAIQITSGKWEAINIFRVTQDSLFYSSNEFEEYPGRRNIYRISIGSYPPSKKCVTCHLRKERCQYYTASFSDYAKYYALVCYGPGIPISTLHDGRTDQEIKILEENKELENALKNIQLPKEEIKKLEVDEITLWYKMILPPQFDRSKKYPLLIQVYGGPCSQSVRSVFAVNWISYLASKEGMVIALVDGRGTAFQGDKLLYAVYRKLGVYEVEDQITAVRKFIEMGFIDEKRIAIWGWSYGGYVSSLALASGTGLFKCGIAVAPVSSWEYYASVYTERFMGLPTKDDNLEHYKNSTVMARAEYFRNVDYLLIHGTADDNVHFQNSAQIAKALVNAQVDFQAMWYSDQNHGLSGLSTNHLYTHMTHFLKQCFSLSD
The next assay addresses DPP8 (Homo sapiens, UniProt Q6V1X1). The following applies: 200 μM.
For another assay, the target named is DPP7 (Homo sapiens, UniProt Q9UHL4). The note with it: 200 μM.
For assay [9], the target named is serine protease NS3 (a.a. 3-181) from Hepatitis C virus genotype 2a (Hepatitis C virus genotype 2a, UniProt Q99IB8). The note with it: 100 nM.
serine protease NS3 (a.a. 3-181) from Hepatitis C virus genotype 2a, sequence (Q99IB8 1033-1211 limits assumed, other chains not shown): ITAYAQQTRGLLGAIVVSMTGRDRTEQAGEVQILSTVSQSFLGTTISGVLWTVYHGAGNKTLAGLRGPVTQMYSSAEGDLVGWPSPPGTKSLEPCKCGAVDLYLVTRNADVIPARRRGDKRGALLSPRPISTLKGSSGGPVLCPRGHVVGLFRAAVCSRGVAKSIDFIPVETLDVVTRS
For assay [10], the system named is serine protease NS3 (a.a. 3-181) from Hepatitis C virus genotype 1b. The following applies: Reference, 100 nM.
The test system of assay [11] is serine protease NS3 (a.a. 3-181) from Hepatitis C virus genotype 1a (mutant D168V). The note with it: Reference, 100 nM.

Ubiquitin carboxyl-terminal hydrolase 10, sequence (Q14694 whole entry): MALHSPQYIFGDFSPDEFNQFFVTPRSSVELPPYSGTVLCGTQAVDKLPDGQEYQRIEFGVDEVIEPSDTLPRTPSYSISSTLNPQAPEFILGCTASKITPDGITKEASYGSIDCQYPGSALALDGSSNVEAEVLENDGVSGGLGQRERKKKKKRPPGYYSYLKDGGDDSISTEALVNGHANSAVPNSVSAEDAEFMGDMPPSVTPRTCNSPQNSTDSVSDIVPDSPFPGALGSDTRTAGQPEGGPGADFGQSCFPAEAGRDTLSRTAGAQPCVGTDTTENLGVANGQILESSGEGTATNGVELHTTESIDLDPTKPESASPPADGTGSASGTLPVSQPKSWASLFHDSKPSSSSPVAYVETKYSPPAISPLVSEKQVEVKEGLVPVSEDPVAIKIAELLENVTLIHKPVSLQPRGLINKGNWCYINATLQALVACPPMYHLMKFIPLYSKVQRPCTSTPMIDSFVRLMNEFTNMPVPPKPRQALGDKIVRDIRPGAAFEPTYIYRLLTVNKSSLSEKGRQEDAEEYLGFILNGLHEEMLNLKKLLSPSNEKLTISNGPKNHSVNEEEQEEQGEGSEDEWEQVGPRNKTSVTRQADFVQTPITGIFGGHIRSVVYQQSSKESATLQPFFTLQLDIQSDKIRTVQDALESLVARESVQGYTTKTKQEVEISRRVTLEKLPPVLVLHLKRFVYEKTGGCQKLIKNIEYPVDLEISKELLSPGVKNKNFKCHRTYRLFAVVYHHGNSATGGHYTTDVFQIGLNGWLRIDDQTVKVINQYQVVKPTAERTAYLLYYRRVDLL
DPP8, sequence (Q6V1X1 whole entry, species assumed): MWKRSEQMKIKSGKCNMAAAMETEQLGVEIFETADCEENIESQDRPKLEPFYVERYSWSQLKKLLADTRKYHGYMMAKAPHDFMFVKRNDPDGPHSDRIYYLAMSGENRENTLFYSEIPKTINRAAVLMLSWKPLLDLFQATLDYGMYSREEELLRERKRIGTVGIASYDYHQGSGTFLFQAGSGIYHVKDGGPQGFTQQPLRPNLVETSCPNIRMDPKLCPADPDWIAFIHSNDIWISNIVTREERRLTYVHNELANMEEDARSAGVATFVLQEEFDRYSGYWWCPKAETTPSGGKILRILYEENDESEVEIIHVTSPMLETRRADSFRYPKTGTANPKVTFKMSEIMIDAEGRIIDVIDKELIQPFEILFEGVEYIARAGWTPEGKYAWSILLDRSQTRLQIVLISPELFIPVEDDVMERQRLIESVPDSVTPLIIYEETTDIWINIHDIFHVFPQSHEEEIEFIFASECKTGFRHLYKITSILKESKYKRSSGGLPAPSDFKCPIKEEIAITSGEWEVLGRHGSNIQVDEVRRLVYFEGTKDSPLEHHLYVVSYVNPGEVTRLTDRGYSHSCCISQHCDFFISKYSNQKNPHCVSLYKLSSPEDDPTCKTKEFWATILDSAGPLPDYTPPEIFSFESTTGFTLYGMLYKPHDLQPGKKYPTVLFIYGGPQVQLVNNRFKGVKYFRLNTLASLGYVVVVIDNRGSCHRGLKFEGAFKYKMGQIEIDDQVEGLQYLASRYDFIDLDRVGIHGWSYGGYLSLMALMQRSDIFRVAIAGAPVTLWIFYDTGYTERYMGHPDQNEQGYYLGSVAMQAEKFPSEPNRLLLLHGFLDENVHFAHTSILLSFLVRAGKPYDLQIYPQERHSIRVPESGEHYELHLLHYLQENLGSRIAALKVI
Ubiquitin carboxyl-terminal hydrolase 7, sequence (Q93009 whole entry): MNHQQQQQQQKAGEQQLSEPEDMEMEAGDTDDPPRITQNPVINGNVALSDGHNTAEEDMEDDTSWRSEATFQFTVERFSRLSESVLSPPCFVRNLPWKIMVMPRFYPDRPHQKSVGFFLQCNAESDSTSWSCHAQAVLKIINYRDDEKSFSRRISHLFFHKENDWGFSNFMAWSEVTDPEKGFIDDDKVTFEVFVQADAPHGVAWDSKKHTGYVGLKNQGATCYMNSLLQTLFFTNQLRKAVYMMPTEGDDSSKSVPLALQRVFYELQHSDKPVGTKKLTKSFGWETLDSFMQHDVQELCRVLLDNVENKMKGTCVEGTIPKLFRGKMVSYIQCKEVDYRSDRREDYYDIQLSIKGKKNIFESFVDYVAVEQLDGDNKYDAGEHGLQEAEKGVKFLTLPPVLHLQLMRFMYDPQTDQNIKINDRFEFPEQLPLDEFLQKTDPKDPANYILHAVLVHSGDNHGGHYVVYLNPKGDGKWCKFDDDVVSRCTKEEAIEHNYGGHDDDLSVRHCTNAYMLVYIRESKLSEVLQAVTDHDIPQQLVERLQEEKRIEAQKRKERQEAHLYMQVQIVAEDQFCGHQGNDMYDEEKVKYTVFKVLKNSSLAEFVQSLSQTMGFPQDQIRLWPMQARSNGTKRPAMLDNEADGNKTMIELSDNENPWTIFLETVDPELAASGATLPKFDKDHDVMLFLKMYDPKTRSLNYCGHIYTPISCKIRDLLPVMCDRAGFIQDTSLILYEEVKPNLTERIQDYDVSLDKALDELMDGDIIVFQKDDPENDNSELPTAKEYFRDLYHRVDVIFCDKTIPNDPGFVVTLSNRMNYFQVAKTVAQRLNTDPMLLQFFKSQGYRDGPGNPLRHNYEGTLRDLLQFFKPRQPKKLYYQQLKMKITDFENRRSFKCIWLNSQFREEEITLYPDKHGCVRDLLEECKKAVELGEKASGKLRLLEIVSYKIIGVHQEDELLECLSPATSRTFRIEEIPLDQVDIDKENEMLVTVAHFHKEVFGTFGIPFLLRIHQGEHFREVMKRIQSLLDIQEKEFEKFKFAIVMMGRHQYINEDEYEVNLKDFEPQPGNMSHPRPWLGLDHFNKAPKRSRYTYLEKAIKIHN

As for Ub-Aldehyde, the “Percentage inhibition (%), Reference” value in [1] was 91%; in assay [2] it was 82%; in [3] it was 73%; in [4], 95%; on Deubiquitinase OTUD6B, 97%; in assay [5], 84%. Also, the “Percentage inhibition (%), Reference” value is listed as 77% at Ataxin3, 96% in [6], 92% in [7] and 95% in assay [8].
On to `N#C[C@@H]1CC(F)(F)CN1C(=O)CNC(=O)c1ccnc2ccccc12` [SP-13786], for which the “Percentage inhibition (%), Reference” value on FAP is listed as 100%.
With `N#Cc1ccc(NCCNCC(=O)N2N=CCC2C#N)nc1` (stereo not shown) [KR62436], the “Percentage inhibition (%), Reference” value on DPP8 was found to be 96%; at DPP7, 83%.
Turning to `CC(C)(C)OC(=O)N[C@H]1CCCCC/C=C\[C@@H]2C[C@@]2(C(=O)NS(=O)(=O)C2CC2)NC(=O)[C@@H]2C[C@@H](OC(=O)N3Cc4cccc(F)c4C3)CN2C1=O` [Denoprevir, reference compound], the figures for the “Percentage inhibition (%), Reference” value in assay [9], in assay [10] and in assay [11] were 98%, 100% and 94%, respectively.
